Source: patent US10519141B2, “Pyrimidine compound and pharmaceutical use thereof” (HANMI PHARM. CO., LTD., priority 2017, dated 2019)

Experiments:
[1] = test system: MV4-11 cell line; assay: Inhibitory activity in cell growth, MTS test, MV4-11; assay type: cell-based; conditions: Homo sapiens, 72 h, incubation three days
Method: MV4-11 cell line was incubated in an IMDM medium (10% FBS) at a temperature of 37° C. The incubated cell line was prepared in an amount of 2×10^4 cells/100 μL, and then plated on 96-well plates. The IMDM medium was treated with cascade dilution of the test compounds at a concentration in a range of 1 μM to 0.01 nM at a rate of 1/10. Subsequently, incubation was performed thereon for three days. MTS test was performed to measure cell viability, and the 50% growth inhibition (GI50) value of the cell line was calculated using GraphPad Prism software.

[2] = molecular target: T1, AXL kinase (Homo sapiens, UniProt P30530); assay: Z'-LYTE kinase assay, inhibitory activity for AXL kinase; assay type: biochemical; conditions: compound concentration of 100 nM, read-out: Degree of inhibition (%)
T1 construct: purchased Life Technologies
T1 sequence (P30530 26-894): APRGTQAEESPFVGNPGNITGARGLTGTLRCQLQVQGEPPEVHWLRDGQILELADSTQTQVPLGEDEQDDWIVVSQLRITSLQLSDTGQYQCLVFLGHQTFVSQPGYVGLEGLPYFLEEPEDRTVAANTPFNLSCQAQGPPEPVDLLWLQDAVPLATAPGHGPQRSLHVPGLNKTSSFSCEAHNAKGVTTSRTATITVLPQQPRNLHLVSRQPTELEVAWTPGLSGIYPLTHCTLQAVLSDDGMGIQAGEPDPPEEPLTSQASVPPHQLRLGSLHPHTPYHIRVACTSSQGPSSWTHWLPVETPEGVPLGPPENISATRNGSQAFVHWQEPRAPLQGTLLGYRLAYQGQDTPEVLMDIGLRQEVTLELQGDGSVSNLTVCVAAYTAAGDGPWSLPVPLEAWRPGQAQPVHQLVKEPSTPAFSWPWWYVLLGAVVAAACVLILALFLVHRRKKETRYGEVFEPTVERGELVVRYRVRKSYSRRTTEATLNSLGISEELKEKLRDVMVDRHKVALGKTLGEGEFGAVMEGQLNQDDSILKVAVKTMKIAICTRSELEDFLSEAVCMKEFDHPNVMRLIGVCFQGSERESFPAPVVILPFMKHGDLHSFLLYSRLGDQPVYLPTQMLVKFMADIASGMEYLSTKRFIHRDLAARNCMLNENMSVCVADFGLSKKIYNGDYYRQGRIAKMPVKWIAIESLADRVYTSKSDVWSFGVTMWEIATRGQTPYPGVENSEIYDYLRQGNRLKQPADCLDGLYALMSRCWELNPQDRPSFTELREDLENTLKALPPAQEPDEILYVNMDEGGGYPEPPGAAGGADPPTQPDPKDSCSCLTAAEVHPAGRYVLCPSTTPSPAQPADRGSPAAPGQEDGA
Method: (§1) Inhibitory activity of the exemplary compounds among the foregoing compounds with respect to AXL, CLK2, VEGFR2 (KDR), NUAK1 kinases were measured. Z'-LYTE™ Kinase Assay Kit-Tyr 6 Peptide (Cat. No. PV4122, available from Life Technologies) for AXL, Z'-LYTE™ Kinase Assay Kit-Ser/Thr peptide 6 (Cat. No. PV3179, available from Life Technologies) for CLK2, Z'-LYTE™ Kinase Assay Kit (Cat. No. PV3190, available from Life Technologies) for VEGFR, and Adapta™ Universal Kinase Assay Kit (Cat. No. PV5099, available from Life Technologies) for NUAK1(ARK5) were used. The experiments were carried out by Life Technologies corporation.

[3] = molecular target: T2, VEGFR2 (KDR) kinase (Homo sapiens, UniProt P35968); assay: Z'-LYTE kinase assay, inhibitory activity for VEGFR2 kinase; assay type: biochemical; conditions: compound concentration of 100 nM, read-out: Degree of inhibition (%)
T2 construct: purchased Life Technologies
Method: as §1

[4] = molecular target: T3, NUAK1 (ARK5) kinase (Homo sapiens, UniProt O60285); assay: Adapta Universal kinase assay, inhibitory activity for NUAK1 kinase; assay type: biochemical; conditions: compound concentration of 100 nM, read-out: Degree of inhibition (%)
T3 construct: purchased Life Technologies
T3 sequence (O60285 1-661): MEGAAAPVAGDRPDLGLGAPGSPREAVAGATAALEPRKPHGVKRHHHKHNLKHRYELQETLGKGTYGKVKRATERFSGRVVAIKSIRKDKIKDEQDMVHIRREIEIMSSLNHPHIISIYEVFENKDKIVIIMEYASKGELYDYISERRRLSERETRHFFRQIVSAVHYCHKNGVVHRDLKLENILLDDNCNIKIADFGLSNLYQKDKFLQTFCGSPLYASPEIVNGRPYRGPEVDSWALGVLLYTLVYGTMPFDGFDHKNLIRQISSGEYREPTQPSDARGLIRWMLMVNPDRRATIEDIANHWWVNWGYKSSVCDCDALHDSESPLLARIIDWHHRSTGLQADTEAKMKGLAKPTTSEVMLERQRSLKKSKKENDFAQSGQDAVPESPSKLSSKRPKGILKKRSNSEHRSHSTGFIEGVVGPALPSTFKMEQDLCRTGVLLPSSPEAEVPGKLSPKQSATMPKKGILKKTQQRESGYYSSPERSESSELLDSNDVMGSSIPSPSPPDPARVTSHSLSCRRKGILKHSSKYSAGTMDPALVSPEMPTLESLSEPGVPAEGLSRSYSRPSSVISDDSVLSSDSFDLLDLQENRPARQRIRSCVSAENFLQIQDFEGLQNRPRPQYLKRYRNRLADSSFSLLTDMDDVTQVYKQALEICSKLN
Method: as §1

[5] = test system: RS4-11 cell line; assay: Inhibitory activity in cell growth, MTS test, RS4-11; assay type: cell-based; conditions: Homo sapiens, 72 h, incubation three days
Method: RS4-11 cell line was incubated in an RPMI1640 culture medium (10% fetal bovine serum (FBS)) at a temperature of 37° C. The incubated cell line was prepared in an amount of 2.0×10^4 cells/100 μL, and then plated on 96-well plates. The RPMI1640 medium was serially diluted with the test compounds at a concentration in a range of 10 μM to 0.1 nM at a ratio of 1/10. Subsequently, incubation was performed thereon for three days. An MTS test was performed to measure cell viability, and the 50% growth inhibition (GI50) value of the cell line was calculated using GraphPad Prism software.

[6] = molecular target: T4, CLK2 kinase (Homo sapiens, UniProt P49760); assay: Z'-LYTE kinase assay, inhibitory activity for CLK2 kinase; assay type: biochemical; conditions: compound concentration of 100 nM, read-out: Degree of inhibition (%)
T4 construct: purchased Life Technologies
Method: as §1

T2 sequence (P35968 20-1356): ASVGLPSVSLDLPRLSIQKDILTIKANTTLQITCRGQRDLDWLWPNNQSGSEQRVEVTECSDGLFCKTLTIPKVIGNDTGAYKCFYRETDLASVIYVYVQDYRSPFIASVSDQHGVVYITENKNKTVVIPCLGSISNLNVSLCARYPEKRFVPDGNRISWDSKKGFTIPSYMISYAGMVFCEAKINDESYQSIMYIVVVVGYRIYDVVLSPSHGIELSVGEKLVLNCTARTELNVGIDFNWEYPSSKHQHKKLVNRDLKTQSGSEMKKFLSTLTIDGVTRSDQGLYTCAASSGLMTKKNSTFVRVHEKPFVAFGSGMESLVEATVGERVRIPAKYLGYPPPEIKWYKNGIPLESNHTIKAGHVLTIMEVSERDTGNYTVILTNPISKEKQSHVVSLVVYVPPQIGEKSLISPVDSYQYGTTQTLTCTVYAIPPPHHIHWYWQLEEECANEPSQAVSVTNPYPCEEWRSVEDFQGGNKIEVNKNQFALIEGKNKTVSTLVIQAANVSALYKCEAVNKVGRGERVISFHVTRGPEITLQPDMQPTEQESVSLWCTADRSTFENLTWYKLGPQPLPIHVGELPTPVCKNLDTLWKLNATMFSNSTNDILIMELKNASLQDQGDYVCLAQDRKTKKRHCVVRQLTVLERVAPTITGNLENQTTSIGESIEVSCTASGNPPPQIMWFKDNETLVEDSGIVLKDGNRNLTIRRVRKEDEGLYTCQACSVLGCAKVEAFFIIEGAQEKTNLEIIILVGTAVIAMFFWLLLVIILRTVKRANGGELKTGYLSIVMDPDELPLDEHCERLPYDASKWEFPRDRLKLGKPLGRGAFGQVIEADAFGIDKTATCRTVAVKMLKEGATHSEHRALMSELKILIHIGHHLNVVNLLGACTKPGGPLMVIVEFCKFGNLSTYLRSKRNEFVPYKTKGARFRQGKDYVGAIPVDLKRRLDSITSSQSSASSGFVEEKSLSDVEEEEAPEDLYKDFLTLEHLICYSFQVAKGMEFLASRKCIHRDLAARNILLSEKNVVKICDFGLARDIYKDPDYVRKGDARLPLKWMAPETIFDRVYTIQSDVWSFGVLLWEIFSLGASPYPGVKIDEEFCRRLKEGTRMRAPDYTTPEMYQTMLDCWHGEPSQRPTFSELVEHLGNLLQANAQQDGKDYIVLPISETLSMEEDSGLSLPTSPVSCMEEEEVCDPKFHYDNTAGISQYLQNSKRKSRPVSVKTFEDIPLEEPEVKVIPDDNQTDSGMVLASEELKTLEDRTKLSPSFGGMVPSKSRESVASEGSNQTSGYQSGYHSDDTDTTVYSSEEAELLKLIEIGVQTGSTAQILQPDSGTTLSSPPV
T4 sequence (P49760 whole entry): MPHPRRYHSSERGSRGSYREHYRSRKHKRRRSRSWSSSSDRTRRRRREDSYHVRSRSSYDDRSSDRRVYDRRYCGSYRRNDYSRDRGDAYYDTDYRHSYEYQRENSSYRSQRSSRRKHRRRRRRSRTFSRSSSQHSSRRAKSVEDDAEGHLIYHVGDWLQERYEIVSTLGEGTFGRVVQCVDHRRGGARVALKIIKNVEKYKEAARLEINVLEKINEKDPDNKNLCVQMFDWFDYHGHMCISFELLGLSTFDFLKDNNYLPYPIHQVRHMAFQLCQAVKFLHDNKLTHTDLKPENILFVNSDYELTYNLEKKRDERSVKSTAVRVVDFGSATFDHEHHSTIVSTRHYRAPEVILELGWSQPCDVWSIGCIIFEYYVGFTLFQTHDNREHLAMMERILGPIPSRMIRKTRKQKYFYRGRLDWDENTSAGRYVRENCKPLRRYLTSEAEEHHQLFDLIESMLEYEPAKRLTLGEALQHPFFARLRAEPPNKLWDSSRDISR

Row | GI50 [1] [nM] | inhibition at 0.1 µM [2] [%] | inhibition at 0.1 µM [3] [%] | inhibition at 0.1 µM [4] [%] | GI50 [5] [nM] | inhibition at 0.1 µM [6] [%] | SMILES
1 | 1.2 | – | – | – | – | – | COc1cc(Nc2ncc(Cl)c(-c3c[nH]c4ccccc34)n2)cc(C(=O)N2CCN(CCO)CC2)c1 [Example 50, (3-((5-chloro-4-(1H-indole-3-yl)pyrimidine-2-yl)amino)-5-methoxyphenyl)(4-(2-hydroxyethyl)piperazine-1-yl)methanone]
2 | – | 52 | 71 | 84 | 147 | 99 | OCCN1CCN(c2cc(Nc3ncc(Cl)c(-c4c[nH]c5cc(F)ccc45)n3)cc(C3CC3)c2)CC1 [Example 1, 2-(4-(3-((5-chloro-4-(6-fluoro-1H-indole-3-yl)pyrimidine-2-yl)amino)-5-cyclopropylphenyl)piperazine-1-yl)ethane-1-ol]
3 | – | 27 | 56 | 67 | – | 77 | Cc1ccc2c(-c3nc(Nc4cc(C5CC5)cc(N5CCC(N(C)C)C5)c4)ncc3Cl)c[nH]c2c1 (centres unmarked) [Example 16, 5-chloro-N-(3-cyclopropyl-5-(3-(dimethylamino)pyrrolidine-1-yl)phenyl)-4-(6-methyl-1H-indole-3-yl)pyrimidine-2-amine]
4 | – | 56 | 46 | 71 | – | 91 | Cc1ccc2c(-c3nc(Nc4cc(C5CC5)cc(N5CCN(CCO)CC5)c4)ncc3Cl)c[nH]c2c1 [Example 2, 2-(4-(3-((5-chloro-4-(6-methyl-1H-indole-3-yl)pyrimidine-2-yl)amino)-5-cyclopropylphenyl)piperazine-1-yl)ethane-1-ol]
5 | 0.8 | – | – | – | – | – | CCc1cc(Nc2ncc(Cl)c(-c3c[nH]c4cc(C)ccc34)n2)cc(OCCN2CCC(O)CC2)c1 [Example 52]
6 | 1.1 | – | – | – | – | – | Cc1ccc2c(-c3nc(Nc4cc(O[C@@H]5CCN(CCO)C5)cc(C5CC5)c4)ncc3Cl)c[nH]c2c1 [Example 53, (R)-2-(3-(3-((5-chloro-4-(6-methyl-1H-indole-3-yl)pyrimidine-2-yl)amino)-5-cyclopropylphenoxy)pyrrolidine-1-yl)ethane-1-ol]
7 | – | – | – | – | 33 | – | COc1ccc2c(-c3nc(Nc4cc(C5CC5)cc(N5CCN(CCO)CC5)c4)ncc3Cl)c[nH]c2c1 [Example 7, 2-(4-(3-((5-chloro-4-(6-methoxy-1H-indole-3-yl)pyrimidine-2-yl)amino)-5-cyclopropylphenyl)piperazine-1-yl)ethane-1-ol]
8 | – | 50 | 63 | – | – | – | Cc1ccc2c(-c3nc(Nc4cc(CN5CCN(C(C)(C)CO)CC5)cc(C5CC5)c4)ncc3Cl)c[nH]c2c1 [Example 41, 2-(4-(3-((5-chloro-4-(6-methyl-1H-indole-3-yl)pyrimidine-2-yl)amino)-5-cyclopropylbenzyl)piperazine-1-yl)-2-methylpropane-1-ol]
9 | 0.8 | – | – | – | – | – | CN(C)C1CCN(c2cccc(Nc3ncc(Cl)c(-c4c[nH]c5ccccc45)n3)c2)C1 (centres unmarked) [Example 30, 5-chloro-N-(3-(3-(dimethylamino)pyrrolidine-1-yl)phenyl)-4-(1H-indole-3-yl)pyrimidine-2-amine]
10 | – | 49 | 62 | 57 | – | 66 | Cc1ccc2c(-c3nc(Nc4cc(C5CC5)cc(N5CCC(N(C)C)CC5)c4)ncc3Cl)c[nH]c2c1 [Example 6, 5-chloro-N-(3-cyclopropyl-5-(4-(dimethylamino)piperidine-1-yl)phenyl)-4-(6-methyl-1H-indole-3-yl)pyrimidine-2-amine]
11 | – | 51 | 99 | 63 | – | 97 | CC(C)(CO)N1CCN(Cc2cc(Nc3ncc(Cl)c(-c4c[nH]c5ccccc45)n3)cc(C3CC3)c2)CC1 [Example 38, 2-(4-(3-((5-chloro-4-(1H-indole-3-yl)pyrimidine-2-yl)amino)-5-cyclopropylbenzyl)piperazine-1-yl)-2-methylpropane-1-ol]
12 | – | 66 | 67 | 72 | – | 93 | Cc1ccc2c(-c3nc(Nc4cc(C5CC5)cc(N5CCN(C(C)(C)CO)CC5)c4)ncc3Cl)c[nH]c2c1 [Example 17, 2-(4-(3-((5-chloro-4-(6-methyl-1H-indole-3-yl)pyrimidine-2-yl)amino)-5-cyclopropylphenyl)piperazine-1-yl)-2-methylpropane-1-ol]
